Laboratory results reported in patent publication US20100076015A1, “Aminopyridine Derivatives” (VANTIA LIMITED, priority 2008, published 2010).

Biological target: T1, Human KLK1 (Homo sapiens, UniProt P06870)
T1 construct: purchased Callbiochem (Calbiochem)
Assay: Determination of the IC50 for KLK1 (fluorogenic substrate H-DVal-Leu-Arg-AFC)
Format: biochemical
Settings: 37° C.
Method in brief: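 Test compound at various concentrations was incubated with human KLK1 and the fluorogenic substrate H-DVal-Leu-Arg-AFC at 37° C. Absorbance change at 410 nm gave the initial reaction rate, from which IC50 was obtained.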

T1 sequence (P06870 25-262): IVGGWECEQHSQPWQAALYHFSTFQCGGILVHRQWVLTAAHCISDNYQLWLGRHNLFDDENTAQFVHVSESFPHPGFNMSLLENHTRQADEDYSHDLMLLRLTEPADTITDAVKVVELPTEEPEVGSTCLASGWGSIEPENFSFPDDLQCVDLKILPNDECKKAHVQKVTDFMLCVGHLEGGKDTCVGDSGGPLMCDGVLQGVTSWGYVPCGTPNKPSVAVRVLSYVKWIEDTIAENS

| SMILES | IC50 [nM] |
| --- | --- |
| Cc1nc(N)ccc1CNC(=O)[C@H](Cc1ccccc1C(F)(F)F)NC(=O)c1cc2ccccc2[nH]1 [Example 322, 1H-Indole-2-carboxylic acid [(S)-1-[(6-amino-2-methyl-pyridin-3-ylmethyl)-carbamoyl]-2-(2-trifluoromethyl-phenyl)-ethyl]-amide] | 12.4 |
| CN1CCC[C@@H]1C(=O)N[C@@H](CC1CCCC2CCCCC21)C(=O)NCc1ccc(N)nc1 (stereo partly drawn) [Example 396, (R)-1-Methyl-pyrrolidine-2-carboxylic acid [(S)-1-[(6-amino-pyridin-3-ylmethyl)-carbamoyl]-2-(decahydro-naphthalen-1-yl)-ethyl]-amide] | 1.4 |
| CN(CC(=O)N[C@@H](Cc1ccc(F)c(F)c1)C(=O)NCc1ccc(N)nc1)Cc1ccc(Cl)cc1 [Example 163, (S)—N-(6-Amino-pyridin-3-ylmethyl)-2-{2-[(4-chloro-benzyl)-methyl-amino]-acetylamino}-3-(3,4-difluoro-phenyl)-propionamide] | 56.5 |
| CC(C)N1CCCC[C@@H]1C(=O)N[C@@H](Cc1ccc(F)cc1)C(=O)NCc1ccc(N)nc1 [Example 147, (R)-1-Isopropyl-piperidine-2-carboxylic acid [(S)-1-[(6-amino-pyridin-3-ylmethyl)-carbamoyl]-2-(4-fluoro-phenyl)-ethyl]-amide] | 49.6 |
| CC(C)N(C)CC(=O)N[C@@H](Cc1ccc(F)c(F)c1)C(=O)NCc1ccc(N)nc1 [Example 156, (S)—N-(6-Amino-pyridin-3-ylmethyl)-3-(3,4-difluoro-phenyl)-2-[2-(isopropyl-methyl-amino)-acetylamino]-propionamide] | 80.6 |
| CCC(C)[C@H](C(=O)N[C@@H](Cc1ccc(F)cc1)C(=O)NCc1ccc(N)nc1)N(C)C (stereo partly drawn) [Example 182, (R)-2-Dimethylamino-3-methyl-pentanoic acid [(S)-1-[(6-amino-pyridin-3-ylmethyl)-carbamoyl]-2-(4-fluoro-phenyl)-ethyl]-amide] | 21.2 |
| CN1CCC[C@@H]1C(=O)N[C@@H](Cc1csc2ccccc12)C(=O)NCc1ccc(N)nc1 [Example 95, (R)-1-Methyl-pyrrolidine-2-carboxylic acid {(S)-1-[(6-amino-pyridin-3-ylmethyl)-carbamoyl]-2-benzo[b]thiophen-3-yl-ethyl}-amide] | 1.8 |
| CC(C)N1CCC[C@@H]1C(=O)N[C@@H](Cc1ccc(Cl)cc1Cl)C(=O)NCc1ccc(N)nc1 [Example 127, (R)-1-Isopropyl-pyrrolidine-2-carboxylic acid [(S)-1-[(6-amino-pyridin-3-ylmethyl)-carbamoyl]-2-(2,4-dichloro-phenyl)-ethyl]-amide] | 0.9 |
| Cc1cc[nH]c1C(=O)N[C@@H](Cc1cccc(F)c1)C(=O)NCc1ccc(N)nc1 [Example 269, 3-Methyl-1H-pyrrole-2-carboxylic acid [(S)-1-[(6-amino-pyridin-3-ylmethyl)-carbamoyl]-2-(3-fluoro-phenyl)-ethyl]-amide] | 26.1 |
| Cc1cc(C)c(C(=O)N[C@@H](Cc2c(F)c(F)c(F)c(F)c2F)C(=O)NCc2ccc(N)nc2)[nH]1 [Example 251, 3,5-Dimethyl-1H-pyrrole-2-carboxylic acid {(S)-1-[(6-amino-pyridin-3-ylmethyl)-carbamoyl]-2-pentafluorophenyl-ethyl}-amide] | 128 |
| CCN(CC)CC(=O)N[C@@H](Cc1ccc(F)cc1)C(=O)NCc1ccc(N)nc1C [Example 428, (S)—N-(6-Amino-2-methyl-pyridin-3-ylmethyl)-2-(2-diethylamino-acetylamino)-3-(4-fluoro-phenyl)-propionamide] | 9.9 |
| CCC(C)[C@H](NC)C(=O)N[C@@H](C(=O)NCc1ccc(N)nc1)C(C1CCCCC1)C1CCCCC1 (stereo partly drawn) [Example 219, (S)-3-Methyl-2-methylamino-pentanoic acid {(R)-1-[(6-amino-pyridin-3-ylmethyl)-carbamoyl]-2,2-dicyclohexyl-ethyl}-amide] | 3.6 |
| Cc1[nH]c(C(=O)N[C@@H](Cc2cccc(C(F)(F)F)c2)C(=O)NCc2ccc(N)nc2)c(C)c1C [Example 230, 3,4,5-Trimethyl-1H-pyrrole-2-carboxylic acid [(S)-1-[(6-amino-pyridin-3-ylmethyl)-carbamoyl]-2-(3-trifluoromethyl-phenyl)-ethyl]-amide] | 20.3 |
| CCC(C)[C@H](C(=O)N[C@@H](Cc1ccc(Cl)c(Cl)c1)C(=O)NCc1ccc(N)nc1)N(C)C(C)C (stereo partly drawn) [Example 155, (R)-2-(Isopropyl-methyl-amino)-3-methyl-pentanoic acid [(S)-1-[(6-amino-pyridin-3-ylmethyl)-carbamoyl]-2-(3,4-dichloro-phenyl)-ethyl]-amide] | 63.3 |
| CCC(C)[C@H](N)C(=O)N[C@@H](Cc1ccc(F)c(F)c1)C(=O)NCc1ccc(N)nc1 (stereo partly drawn) [Example 83, (S)-2-Amino-3-methyl-pentanoic acid [(S)-1-[(6-amino-pyridin-3-ylmethyl)-carbamoyl]-2-(3,4-difluoro-phenyl)-ethyl]-amide] | 158 |
| C[C@H](C(=O)N[C@@H](Cc1ccc(Cl)c(Cl)c1)C(=O)NCc1ccc(N)nc1)N1CCCCC1 [Example 402, (R)—N-[(S)-1-[(6-Amino-pyridin-3-ylmethyl)-carbamoyl]-2-(3,4-dichloro-phenyl)-ethyl]-2-piperidin-1-yl-propionamide] | 13 |

| SMILES | IC50 [nM] |
| --- | --- |
| CN(C)CC(=O)N[C@@H](C(=O)NCc1ccc(N)nc1)C(C1CCCCC1)C1CCCCC1 [Example 222, (R)—N-(6-Amino-pyridin-3-ylmethyl)-3,3-dicyclohexyl-2-(2-dimethylamino-acetylamino)-propionamide] | 39.7 |
| CC(C)N(C)[C@H](C)C(=O)N[C@@H](Cc1ccc(Cl)c(Cl)c1)C(=O)NCc1ccc(N)nc1 [Example 151, (R)—N-[(S)-1-[(6-Amino-pyridin-3-ylmethyl)-carbamoyl]-2-(3,4-dichloro-phenyl)-ethyl]-2-(isopropyl-methyl-amino)-propionamide] | 17.7 |
| CCC(C)[C@@H](N)C(=O)N[C@@H](Cc1ccc(Cl)c(Cl)c1)C(=O)NCc1ccc(N)nc1 (stereo partly drawn) [Example 35, (R)-2-Amino-3-methyl-pentanoic acid [(S)-1-[(6-amino-pyridin-3-ylmethyl)-carbamoyl]-2-(3,4-dichloro-phenyl)-ethyl]-amide] | 0.47 |
| Nc1ccc(CNC(=O)[C@H](NC(=O)[C@@H](N)Cc2ccccc2)C(C2CCCCC2)C2CCCCC2)cn1 [Example 216, (S)-2-Amino-N-{(R)-1-[(6-amino-pyridin-3-ylmethyl)-carbamoyl]-2,2-dicyclohexyl-ethyl}-3-phenyl-propionamide] | 24.4 |
| CCC(C)[C@H](NC)C(=O)N[C@@H](Cc1ccc(F)c(F)c1)C(=O)NCc1ccc(N)nc1 (stereo partly drawn) [Example 82, (S)-3-Methyl-2-methylamino-pentanoic acid [(S)-1-[(6-amino-pyridin-3-ylmethyl)-carbamoyl]-2-(3,4-difluoro-phenyl)-ethyl]-amide] | 11.2 |
| Nc1ccc(CNC(=O)[C@H](Cc2ccc(Cl)c(Cl)c2)NC(=O)[C@H]2CCCN2Cc2ccccc2)cn1 [Example 141, (R)-1-Benzyl-pyrrolidine-2-carboxylic acid [(S)-1-[(6-amino-pyridin-3-ylmethyl)-carbamoyl]-2-(3,4-dichloro-phenyl)-ethyl]-amide] | 13.7 |
| CC(C1CCCCC1)[C@@H](NC(=O)[C@H](C)N(C)C(C)C)C(=O)NCc1ccc(N)nc1 (stereo partly drawn) [Example 436, (R)—N-(6-Amino-pyridin-3-ylmethyl)-3-cyclohexyl-2-[(S)-2-(isopropyl-methyl-amino)-propionylamino]-butyramide] | 3.6 |
| CC(C)N[C@H](Cc1ccccc1)C(=O)N[C@@H](Cc1ccc(F)c(F)c1)C(=O)NCc1ccc(N)nc1 [Example 184, (R)—N-[(S)-1-[(6-Amino-pyridin-3-ylmethyl)-carbamoyl]-2-(3,4-difluoro-phenyl)-ethyl]-2-isopropylamino-3-phenyl-propionamide] | 44.4 |
| Cc1nc(N)ccc1CNC(=O)[C@H](Cc1ccc(Cl)c(Cl)c1)NC(=O)c1cc2ccccc2[nH]1 [Example 320, 1H-Indole-2-carboxylic acid [(S)-1-[(6-amino-2-methyl-pyridin-3-ylmethyl)-carbamoyl]-2-(3,4-dichloro-phenyl)-ethyl]-amide] | 98.5 |
| Cc1ccc(C[C@H](NC(=O)[C@H]2CCCN2C)C(=O)NCc2ccc(N)nc2)cc1 [Example 106, (R)-1-Methyl-pyrrolidine-2-carboxylic acid {(S)-1-[(6-amino-pyridin-3-ylmethyl)-carbamoyl]-2-p-tolyl-ethyl}-amide] | 3.9 |
| CCC(C)[C@@H](NC)C(=O)N[C@@H](Cc1cccc(C(F)(F)F)c1)C(=O)NCc1ccc(N)nc1 (stereo partly drawn) [Example 42, (R)-3-Methyl-2-methylamino-pentanoic acid [(S)-1-[(6-amino-pyridin-3-ylmethyl)-carbamoyl]-2-(3-trifluoromethyl-phenyl)-ethyl]-amide] | 1.4 |
| Cc1cc(C)c(C(=O)N[C@@H](Cc2cccc3ccccc23)C(=O)NCc2ccc(N)nc2C)[nH]1 [Example 278, 3,5-Dimethyl-1H-pyrrole-2-carboxylic acid {(S)-1-[(6-amino-2-methyl-pyridin-3-ylmethyl)-carbamoyl]-2-naphthalen-1-yl-ethyl}-amide] | 3.2 |
| CN1CCC[C@@H]1C(=O)N[C@@H](Cc1ccc(F)cc1)C(=O)NCc1ccc(N)nc1 [Example 98, (R)-1-Methyl-pyrrolidine-2-carboxylic acid [(S)-1-[(6-amino-pyridin-3-ylmethyl)-carbamoyl]-2-(4-fluoro-phenyl)-ethyl]-amide] | 1.3 |
| CN[C@H](C)C(=O)N[C@@H](Cc1ccc(F)c(F)c1)C(=O)NCc1ccc(N)nc1 [Example 84, (R)—N-[(S)-1-[(6-Amino-pyridin-3-ylmethyl)-carbamoyl]-2-(3,4-difluoro-phenyl)-ethyl]-2-methylamino-propionamide] | 8 |
| Nc1ccc(CNC(=O)[C@H](Cc2ccc(F)c(F)c2)NC(=O)CN2CCCc3ccccc32)cn1 [Example 173, (S)—N-(6-Amino-pyridin-3-ylmethyl)-3-(3,4-difluoro-phenyl)-2-(2-3,4-dihydro-2H-quinolin-1-yl-acetylamino)-propionamide] | 78.3 |
